We go through 4 compounds from paper PMC9699003, “Arene Variation of Highly Cytotoxic Tridentate Naphthoquinone-Based Ruthenium(II) Complexes and In-Depth In Vitro Studies” (Pharmaceutics, 2022).

The subject of data set [1] is SW480 cells. The data set is described as follows: Cellular ruthenium accumulation (ICP-MS). Type of data set: cell-based, human. The settings on record: SW480, 2 h incubation, 37 °C. The method, then: SW480 cells were seeded at densities of 1.8 × 10^5 cells/well in 12-well plates (CytoOne, tissue culture treated) in 1 mL of supplemented MEM per well. (As CH1/PA-1 cells tend to detach during the required washing steps, cellular accumulation studies were performed only in SW480 cells). After 24 h, compounds dissolved in DMSO and diluted in MEM were added to the cells to final concentrations of 2 µM and 5 µM, and cells were incubated at 37 °C for 2 h. During incubation, the cell number was determined from three control wells of a plate seeded in parallel to the treatment plates. After the 2 h incubation, the medium was removed and all wells were washed with 3 × 1 mL PBS, and cells were lysed by adding 400 µL HNO3 per well for 1 h at room temperature. An amount of 300 µL of each lysate was added to 7.7 mL MilliQ water to get a total volume of 8 mL, and determination of the ruthenium content was carried out by ICP-MS. The measured amount of accumulated metal was normalized to the cell number and results were given in fg [Ru]/cell from at least three independent experiments. An Agilent 7800 ICP-MS instrument (Agilent Technologies, Tokyo, Japan) equipped with an Agilent SPS 4 autosampler (Agilent Technologies, Tokyo, Japan) was used to determine the ruthenium content. The ICP-MS parameters were tuned on a daily base to achieve high sensitivity. The ICP-MS was equipped with a MicroMist nebulizer with a sample uptake rate of ∼0.2 mL/min and standard nickel cones. The Agilent MassHunter software package (Workstation Software, Version C.01.04, 2018) was used for data evaluation. The instrumental parameters can be found in the supplementary information (Table S9).

Another data set deals with pUC19 plasmid. Description: DNA interaction assay (dsDNA plasmid, agarose gel electrophoresis). The data set is classed as biochemical. To be noted: 50 µM; for open circular (oc) form of pUC19 (single-strand breaks): 37 °C, after 6 h of incubation, control after 6 h 3.6 ± 0.7%. The method, then: The incubation was performed at 37 °C for different time intervals (15 min to 6 h) with continuous shaking. Additionally, 4 µL aliquots of a 6× DNA loading dye (Thermo Fisher) were added to the 20 µL reaction solution, and the DNA samples were separated in a 1% agarose gel in 1 × Tris-Borate-EDTA (TBE) buffer. Electrophoresis was initiated at 60 V for 5 min and continued at 120 V for 90 min in 1 × TBE buffer. For visualization of the DNA modification degree, the agarose gel was stained with ethidium bromide (EtBr) in 1 × TBE (0.75 µg/mL) for 20 min.

Data set [2] has as its system SW480 cells. The data set is described as follows: Apoptosis assay (annexin V-FITC/PI, flow cytometry). To be noted: SW480, 24 h; for early apoptotic cells / late apoptotic cells / necrotic cells / viable cells: mean ± SD. For orientation: A flow cytometer gives signals particle by particle.
Description: Cell death induction was quantitatively analyzed via flow cytometry using double staining with FITC-conjugated annexin V (eBioscience, San Diego, CA, USA) and propidium iodide (PI, 1.0 mg/mL, Sigma-Aldrich). SW480 cells were seeded into 24-well plates (7 × 10^4 cells/well) in 600 µL MEM per well and allowed to settle for 24 h. Afterward, cells were exposed to two or three different concentrations (0.1–100 µM) of the compounds (based on their cytotoxic activity) for 24 h. After treatment, the medium was collected, and cells were washed once with 37 °C warm PBS and harvested. Following trypsinization, the cell suspension was added to the pre-collected medium and cells were centrifuged (300 g, 3 min). The supernatant was removed, and the cell pellet was resuspended with 1.5 µL FITC-conjugated annexin V in 150 µL binding buffer (10 mM HEPES/NaOH pH 7.4, 140 mM NaCl and 2.5 mM CaCl2) and incubated at 37 °C for 15 min. An amount of 1 µL of propidium iodide (PI, Thermo Fisher) was added shortly before flow-cytometric analysis using a Guava easyCyte 8HT instrument (Merck Millipore, Burlington, MA, USA) with InCyte software. Results were quantified by using the FlowJo software (TreeStar). At least three independent experiments were conducted.
Another data set has as its target T1, NQO1 (SW480 cells) (Homo sapiens, UniProt P15559).
T1 construct: impact on NQO1 activity in SW480 (left panel) and CH1/PA-1 (right panel) cell extracts after treatment; endogenous in cells; host or cells: SW480 colon carcinoma cells (ATCC)
Description: NQO1 activity assay in cell extracts after treatment. To be noted: SW480, 24 h treatment. The data set is classed as cell-based. Here is the method:
To determine NQO1 activity, SW480 and CH1/PA-1 cells were seeded into 6-well plates in densities of 2 × 10^5 cells/well in 2 mL supplemented MEM. […] The test substances were dissolved in DMSO/medium. To exclude that assay validity was compromised by the use of DMSO, cells treated with DMSO alone (at concentrations corresponding to those in substance solutions) were measured in parallel. After 24 h drug exposure, the medium was aspirated, and the cells were gently washed twice with PBS. The further steps were performed following the manual instructions of the NQO1 activity assay kit (ab184867, abcam, Cambridge, UK). Protease inhibitor phenylmethylsulfonyl fluoride (PMSF, Merck, Darmstadt, Germany) and phosphatase inhibitor PhosSTOP^TM (Roche, Basel, Switzerland) were applied. For determining the protein concentration, the Micro BCA^TM protein assay (prod # 23235, Thermo Scientific) kit was used. For NQO1 activity determination, 100 µg/mL of total protein was loaded. The development of yellow color was monitored for 5 min in 20-sec intervals with a microplate reader (BioTek ELx808) at 450 nm. The measured data were evaluated according to the instructions of the NQO1 activity assay kit: “NQO1 activity was calculated by subtracting the OD value with Inhibitor from the one without Inhibitor. The activity is expressed as the change in absorbance per minute per amount of sample loaded into the well” [30]. Data are expressed as rates of increase of mean absorbance ± SDs from three independent experiments.

T1 sequence (P15559 whole entry): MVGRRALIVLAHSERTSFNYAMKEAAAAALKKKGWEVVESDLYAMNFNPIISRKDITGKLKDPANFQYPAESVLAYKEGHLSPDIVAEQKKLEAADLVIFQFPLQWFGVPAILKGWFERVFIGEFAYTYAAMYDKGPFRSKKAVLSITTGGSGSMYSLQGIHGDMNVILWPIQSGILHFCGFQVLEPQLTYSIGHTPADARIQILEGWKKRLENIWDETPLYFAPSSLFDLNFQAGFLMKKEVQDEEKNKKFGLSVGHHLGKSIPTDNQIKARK

On to `CC1=C([O-])C([O-])(n2cccn2)c2ccccc2C1=O.[Ru+2].c1ccccc1` (racemic) [Compound 2], for which the “Ru [102]/cell (cellular accumulation)” value in the data set on SW480 cells [1] (2 µM) was determined as 4.5 ± 0.3 fg. The “Ru [102]/cell (cellular accumulation)” value in the data set with SW480 cells [1] (5 µM) stood at 11 ± 2 fg. The “open circular (oc) form of pUC19 (single-strand breaks)” value (shortened to “open circular (oc) form of pUC19”) with pUC19 plasmid was 11.8 ± 0.9%. In the data set on SW480 cells [2] (1 µM), this compound showed an early apoptotic cells of 1.1 ± 0.4%, a late apoptotic cells of 2.0 ± 0.2%, a necrotic cells of 1.4 ± 0.8% and a viable cells of 95 ± 1%. Also, in the data set on SW480 cells [2] (10 µM), the early apoptotic cells stood at 1.0 ± 0.3%, the late apoptotic cells is 2.0 ± 0.3%, the necrotic cells was 1.5 ± 0.8% and the viable cells came to 96 ± 1%.

For `CC1=C([O-])C([O-])(n2cccn2)c2ccccc2C1=O.Cc1ccccc1.[Ru+2]` (racemic) [Compound 3], the “Ru [102]/cell (cellular accumulation)” value in the data set on SW480 cells [1] (2 µM) is 15 ± 2 fg. Further, in the data set with SW480 cells [1] (5 µM), the “Ru [102]/cell (cellular accumulation)” value is on record as 33 ± 10 fg. Besides, the “open circular (oc) form of pUC19” value with pUC19 plasmid came out at 11.7 ± 1.6%. In the data set on SW480 cells [2] (1 µM), this compound registered an early apoptotic cells of 1.0 ± 0.7%, a late apoptotic cells of 2.1 ± 0.3%, a necrotic cells of 1.0 ± 0.5% and a viable cells of 96 ± 1%. In the data set on SW480 cells [2] (10 µM), the early apoptotic cells came to 0.7 ± 0.3%, the late apoptotic cells was found to be 2.1 ± 0.7%, the necrotic cells stood at 0.72 ± 0.49% and the viable cells stood at 97 ± 1%.

For the compound `CC1=C([O-])C([O-])(n2cccn2)c2ccccc2C1=O.[Ru+2].c1ccc2c(c1)CCC2` (racemic) [Compound 4], the “Ru [102]/cell (cellular accumulation)” value in the data set on SW480 cells [1] (2 µM) is listed as 44 ± 3 fg; in the data set with SW480 cells [1] (5 µM) it was 100 ± 15 fg. Moreover, the “open circular (oc) form of pUC19” value in the data set on pUC19 plasmid is on record as 12.1 ± 1.9%. Also, the “Effect on NQO1 activity (in words)” value at NQO1 (SW480 cells) (10 µM) is “moderate suppression of enzyme activity”. Besides, the early apoptotic cells was determined as 1.1 ± 0.5% in the data set on SW480 cells [2] (0.1 µM), 1.1 ± 0.7% in the data set on SW480 cells [2] (1 µM) and 1.0 ± 0.4% with SW480 cells [2] (10 µM). Further, the late apoptotic cells came out at 2.1 ± 0.4% in the data set with SW480 cells [2] (0.1 µM), 2.4 ± 1.2% in the data set on SW480 cells [2] (1 µM) and 8.3 ± 4.9% in the data set with SW480 cells [2] (10 µM). For the same compound, the necrotic cells in the data set with SW480 cells [2] (0.1 µM) was determined as 1.7 ± 1.1%; in the data set with SW480 cells [2] (1 µM), 0.93 ± 0.65%; with SW480 cells [2] (10 µM) it was 3.4 ± 4.0%. In addition, the values for the viable cells in the data set on SW480 cells [2] (0.1 µM), in the data set with SW480 cells [2] (1 µM) and in the data set with SW480 cells [2] (10 µM) were 95 ± 2%, 96 ± 2% and 87 ± 8%, respectively.

With `CC1=C([O-])C([O-])(n2cccn2)c2ccccc2C1=O.[Ru+2].c1ccc(-c2ccccc2)cc1` (racemic) [Compound 5], the “Ru [102]/cell (cellular accumulation)” value in the data set on SW480 cells [1] (2 µM) turned out to be 107 ± 14 fg; in the data set on SW480 cells [1] (5 µM), 336 ± 10 fg. In the data set with pUC19 plasmid (up to 6 h), the “Influence on pUC19 (in words)” value was “only a minor influence on pUC19”. Further, the “Effect on NQO1 activity (in words)” value is given as “negligible effects” at NQO1 (SW480 cells) (0.1 µM and 1 µM, compared to untreated control); “lowered NQO1 activity tremendously” on NQO1 (SW480 cells) (10 µM). For the same compound, the figures for the early apoptotic cells in the data set on SW480 cells [2] (0.1 µM), with SW480 cells [2] (1 µM) and in the data set on SW480 cells [2] (10 µM) were 3.0 ± 2.2%, 1.0 ± 0.5% and 25 ± 7%, respectively. In addition, the late apoptotic cells came out at 2.9 ± 1.5% in the data set on SW480 cells [2] (0.1 µM), 3.3 ± 1.3% in the data set with SW480 cells [2] (1 µM) and 40 ± 6% in the data set with SW480 cells [2] (10 µM). For the same compound, the necrotic cells with SW480 cells [2] (0.1 µM) stood at 1.0 ± 0.5%; in the data set with SW480 cells [2] (1 µM), 0.85 ± 0.48%; with SW480 cells [2] (10 µM) it was 6.3 ± 2.2%. Moreover, the results for the viable cells in the data set on SW480 cells [2] (0.1 µM), in the data set with SW480 cells [2] (1 µM) and in the data set on SW480 cells [2] (10 µM) were 93 ± 4%, 95 ± 2% and 29 ± 11%, respectively. Also, in the data set with SW480 cells [2] (concentrations covering the IC50 range), the “Apoptosis / necrosis induction (in words)” value is given as “induced apoptosis to a high extent”.
